According to patent US8846704B2, “Thiopyrimidine-based compounds and uses thereof” (YM Biosciences Austraila Pty Ltd, priority 2007, dated 2014):

How the values were obtained:
Type in all cases: cell-based
BaF3 wild-type cells = test: Cellular screening, BaF3 wild-type cells, Alamar Blue; settings: Mus musculus, 40 hr, read-out: BAF3wt IC50_nM
Procedure, shortened: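 Compounds, screened from dilution plates at 20 μM, were added as 10× final stocks to cells grown in DMEM/10% FCS/10% WEHI 3B conditioned medium. Cells were seeded at 1.1× final (50,000–200,000 cells/mL) and incubated 40 hr at 37° C, 5% CO2. Viability was read at 544 nm after a further 4–6 hours with Alamar Blue.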

CTLL2 = test: Cellular screening, CTLL2 cells, Alamar Blue; settings: Mus musculus, CTLL-2, read-out: CTLL2 IC50_nM
Procedure, shortened: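 Viability is read with Alamar Blue at 544 nm, the dye added for the final 4-6 hours. Compounds were incubated for 40 hr with CTLL2 cells taken from late-log-phase culture, at 37° C in 5% CO2.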

BaF3 TELJAK3 cells = target: T1, BaF3 TELJAK3 cells (Homo sapiens, UniProt P52333); test: Cellular screening, BaF3 TEL:JAK3 cells, Alamar Blue; settings: 40 hr, read-out: BafT_J3 IC50_nM
T1 construct: fused on or other part: TEL (ETV6) N-terminal part, coding nucleotides 1-487, serves as the oligomerising partner; It is fused through a Sal I site to the JAK3 kinase domain and expressed from pTRE2 in BaF3 cells bearing pTET-off; P41212 (Transcription factor ETV6)
T1 sequence (P52333 1-1124): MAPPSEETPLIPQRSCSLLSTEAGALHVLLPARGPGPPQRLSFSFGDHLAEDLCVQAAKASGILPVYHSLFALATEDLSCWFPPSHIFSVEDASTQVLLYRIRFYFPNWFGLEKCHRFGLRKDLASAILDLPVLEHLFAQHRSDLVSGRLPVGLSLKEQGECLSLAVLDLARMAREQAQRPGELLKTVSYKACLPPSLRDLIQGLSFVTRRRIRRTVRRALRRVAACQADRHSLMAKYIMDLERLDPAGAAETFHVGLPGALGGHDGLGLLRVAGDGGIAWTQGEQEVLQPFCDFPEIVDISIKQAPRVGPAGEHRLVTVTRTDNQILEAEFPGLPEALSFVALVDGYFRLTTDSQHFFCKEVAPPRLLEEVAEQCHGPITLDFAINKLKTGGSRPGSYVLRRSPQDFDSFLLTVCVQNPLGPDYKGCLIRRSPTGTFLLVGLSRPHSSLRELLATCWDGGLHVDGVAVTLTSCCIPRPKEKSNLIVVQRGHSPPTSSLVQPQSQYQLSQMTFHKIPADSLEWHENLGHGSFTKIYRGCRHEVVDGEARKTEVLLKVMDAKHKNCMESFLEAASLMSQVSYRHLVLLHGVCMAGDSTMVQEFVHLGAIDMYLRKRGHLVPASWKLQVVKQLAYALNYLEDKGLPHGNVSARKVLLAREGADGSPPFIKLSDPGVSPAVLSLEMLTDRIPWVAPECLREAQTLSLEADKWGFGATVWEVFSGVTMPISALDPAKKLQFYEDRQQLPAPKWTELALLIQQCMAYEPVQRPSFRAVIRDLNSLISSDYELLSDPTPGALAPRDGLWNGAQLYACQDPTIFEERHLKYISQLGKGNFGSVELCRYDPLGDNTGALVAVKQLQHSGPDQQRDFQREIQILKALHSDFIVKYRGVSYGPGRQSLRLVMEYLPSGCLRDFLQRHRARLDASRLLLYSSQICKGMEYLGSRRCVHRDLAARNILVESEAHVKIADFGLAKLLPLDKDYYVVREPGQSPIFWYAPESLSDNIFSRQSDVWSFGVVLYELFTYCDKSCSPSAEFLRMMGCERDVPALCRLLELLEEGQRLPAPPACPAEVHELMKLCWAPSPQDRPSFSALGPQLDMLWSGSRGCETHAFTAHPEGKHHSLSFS
Description: For screening purposes, compounds were diluted in 96 well plates at a concentration of 20 μM. Plates were warmed at 37° C. for 30 minutes before the assay was performed.
The coding region encompassing nucleotides 1-487 of TEL was amplified by PCR using the oligonucleotides STEL (5′-GGAGGATCCTGATCTCTCTCGCTGTGAGAC-3′) [SEQ ID NO 14] and 3TEL (5′-AGGC GTCGACTTCTTCTTCATGGTTCTG-3′) [SEQ ID NO 15] and U937 mRNA as a template. A […] restriction site was incorporated into the STEL primer, and a Sal I restriction site was incorporated into the 3TEL primer. The regions encompassing the kinase domain of JAK2 (nucleotides 2994-3914; JAK2F 5′-ACGC GTCGACGGTGCCTTTGAAGACCGGGAT-3′ [SEQ ID NO 16]; JAK2R 5′-ATAGTTTAGCGGCCGCTCAGAATGAAGGTCATTT-3′) [SEQ ID NO 17] and JAK3 (nucleotides 2520-3469; JAK3F 5′-GAAGTCGACTATGCCTGCCAAGACCCCACGATCTT-3′) [SEQ ID NO 18] were generated by PCR using Taq DNA polymerase (Gibco/BRL) and […] as a template. A Sal I restriction site was incorporated into the forward primer of JAK2 and JAK3, a Not I site was incorporated into the JAK2 reverse primer and a Xba I site was added to the reverse primer of JAK3.
The TEL/Jak3 fusion was prepared by ligation of the JAK3 Sal I/Not I cleaved kinase domain PCR product with the BamH I/Sal I restriction digested TEL product, followed by ligation of the ligation product into the BamH I/Not I digested pTRE2, to give the TEL/Jak3 fusion plasmid pTELJAK3.
The growth factor dependant myelomonocytic cell line BaF3 bearing the pTET-off plasmid (Clontech) was transfected with either pTELJAK2 or pTELJAK3, and the transfected cells were selected for growth-factor independent cell growth. The BaF3 wild-type cells were cultured in DMEM containing 10% FCS, 10% WEHI 3B conditioned medium. The BaF3 TELJAK cells ([…]) were cultured in DMEM 10% Tet-System Approved FBS (without WEHI 3B conditioned medium).
Cell suspensions were prepared by harvesting cells from culture (the cells used in this test were in late log phase growth with high viability.) Cells were diluted in the appropriate growth medium, as described above, to 1.1× final concentration (from 50,000 cell/mL to 200,000 cell/mL, depending on cell line).
Compounds to be tested were added (10 μL, 10× final concentration) to a flat bottomed 96-well plate. The cellular suspension (90 μL per well) was then added, and the plate incubated for 40 hr at 37° C., 5% CO2. Alamar Blue 10 μL per well was added and the plates returned to the incubator for a further 4-6 hours. The plates were then read at 544 nm.

SMILES	IC50 (BaF3 wild-type cells) [µM]	IC50 (CTLL2) [µM]	GI50 (BaF3 TELJAK3 cells) [µM]
C=CC(=O)Nc1ccc(Sc2nc(Nc3ccc(N4CCOCC4)cc3)ncc2Br)cc1 [Compound 306, N-(4-(5-bromo-2-(4-morpholinophenylao)pyrimidin-4-ylthio)phenyl)acrylamide]	> 20	< 1	< 1
C=CC(=O)Nc1ccc(Sc2nc(Nc3ccc(N4CCC(CO)CC4)cc3)ncc2Br)cc1 [Compound 253, N-(4-(5-bromo-2-(4-(4-(hydroxymethyl)piperidin-1-yl)phenylao)pyrimidin-4-ylthio)phenyl)acrylamide]	> 20	< 1	< 1
C=CC(=O)Nc1ccc(Sc2nc(Nc3ccc(OCCCN(CC)CC)cc3)ncc2C)cc1 [Compound 291, N-(4-(2-(4-(3-(diethylao)propoxy)phenylao)-5-methylpyrimidin-4-ylthio)phenyl)acrylamide]	< 5	< 1	< 1
C=CC(=O)Nc1ccc(Sc2nc(Nc3ccc(N4CCOCC4)cc3)ncc2C)c(C)c1 [Compound 163, N-(3-methyl-4-(5-methyl-2-(4-morpholinophenylao)pyrimidin-4-ylthio)phenyl)acrylamide]	> 20	< 1	< 1
Cc1cnc(Nc2ccc(N3CCOCC3)cc2)nc1Sc1ccc(N2C(=O)CSCC2=O)cc1 [Compound 231, 4-(4-(5-methyl-2-(4-morpholinophenylao)pyrimidin-4-ylthio)phenyl)thiomorpholine-3,5-dione]	> 20	< 20	< 20
C=CC(=O)N(C)c1ccc(Sc2nc(Nc3ccc(N4CCOCC4)cc3)ncc2Br)cc1 [Compound 261, N-(4-(5-bromo-2-(4-morpholinophenylao)pyrimidin-4-ylthio)phenyl)-N-methylacrylamide]	> 20	< 1	< 1
C=CC(=O)Nc1ccc(Sc2nc(Nc3ccc(N4CCN(C)CC4)c(OC)c3)ncc2C)cc1 [Compound 249, N-(4-(2-(3-methoxy-4-(4-methylpiperazin-1-yl)phenylao)-5-methylpyrimidin-4-ylthio)phenyl)acrylamide]	< 5	< 1	< 1
Cc1cc(N)ccc1Sc1nc(Nc2ccc(N3CCOCC3)cc2)ncc1C [Compound 162, 4-(4-ao-2-methylphenylthio)-5-methyl-N-(4-morpholinophenyl)pyrimidin-2-ae]	< 20	< 5	< 5
CC#CC(=O)Nc1cccc(Nc2nccc(SC)n2)c1 [Compound 8, N-(3-(4-(methylthio)pyrimidin-2-ylao)phenyl)but-2-ynamide]	< 20	< 20	< 5
Cc1cc(Sc2nc(Nc3ccc(N4CCOCC4)cc3)ncc2C)ccc1N [Compound 255, 4-(4-ao-3-methylphenylthio)-5-methyl-N-(4-morpholinophenyl)pyrimidin-2-ae]	< 20	> 20	< 20
C=CC(=O)NCc1ccc(Sc2ccnc(Nc3ccc(N4CCOCC4)cc3)n2)cc1 [Compound 111, N-(4-(2-(4-morpholinophenylamino)pyrimidin-4-ylthio)benzyl)acrylamide]	< 20	< 5	< 1
Nc1ccc(Sc2nc(Nc3ccc(N4CCOCC4)cc3)ncc2F)cc1 [Compound 263, 4-(4-aophenylthio)-5-fluoro-N-(4-morpholinophenyl)pyrimidin-2-ae]	< 5	> 20	< 5
Cc1cnc(Nc2cccc(N3CCN(C)CC3)c2)nc1Sc1ccc(N)cc1 [Compound 245, 4-(4-aophenylthio)-5-methyl-N-(3-(4-methylpiperazin-1-yl)phenyl)pyrimidin-2-ae]	< 1	< 5	< 1
C=CC(=O)Nc1ccc(Sc2ccnc(Nc3ccc(S(N)(=O)=O)c(OC)c3)n2)cc1 [Compound 374, N-(4-(2-(3-methoxy-4-sulfamoylphenylao)pyrimidin-4-ylthio)phenyl)acrylamide]	< 5	< 20	< 1
